Results as given in ChEMBL document CHEMBL4028891, “X-ray Characterization and Structure-Based Optimization of Striatal-Enriched Protein Tyrosine Phosphatase Inhibitors” (J Med Chem, 2017).

Biological target: T1, Tyrosine-protein phosphatase non-receptor type 5 (Homo sapiens, UniProt P54829)
T1 sequence (P54829 whole entry): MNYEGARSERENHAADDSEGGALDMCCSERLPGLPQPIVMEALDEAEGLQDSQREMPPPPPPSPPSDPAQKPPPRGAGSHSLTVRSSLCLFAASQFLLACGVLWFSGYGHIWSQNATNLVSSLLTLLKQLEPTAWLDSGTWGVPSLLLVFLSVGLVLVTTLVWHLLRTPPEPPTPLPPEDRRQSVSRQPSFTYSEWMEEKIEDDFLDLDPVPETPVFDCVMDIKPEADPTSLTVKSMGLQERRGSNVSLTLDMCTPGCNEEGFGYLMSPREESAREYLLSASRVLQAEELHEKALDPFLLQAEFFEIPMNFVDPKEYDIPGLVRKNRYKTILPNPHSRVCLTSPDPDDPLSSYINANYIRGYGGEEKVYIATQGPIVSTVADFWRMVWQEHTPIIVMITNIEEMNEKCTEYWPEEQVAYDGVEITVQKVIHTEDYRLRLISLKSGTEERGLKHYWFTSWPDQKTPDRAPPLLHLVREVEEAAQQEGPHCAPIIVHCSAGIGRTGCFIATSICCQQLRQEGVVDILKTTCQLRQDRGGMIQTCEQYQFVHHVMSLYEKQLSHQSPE
Experiment: Binding affinity to 6His-tagged STEP phosphatase domain (258 to 539 residues) (unknown origin) expressed in Escherichia coli BL21 Gold (DE3) after 90 secs at 30 degC by isothermal titration calorimetry assay

Row | Kd [µM] | SMILES
1 | 27.2 | O=P(O)(O)[C@H](O)c1ccc(-c2cccc([C@@H](O)c3ccc(Cl)c(Cl)c3)c2)cc1
2 | 31.4 | O=P(O)(O)[C@H](O)c1ccc(-c2cccc([C@H](O)c3ccc(Cl)c(Cl)c3)c2)cc1
3 | 70.4 | O=P(O)(O)C(F)(F)c1cccc(-c2cccc(C3CCCCC3)c2O)c1
